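1) Cells in 96-well plates. 2) Compound, 48 h, 5 concentrations. 3) Linear interpolation between surrounding doses. 4) Unreached endpoint = highest concentration. GI50: concentration for 50% inhibition of growth. The concentration for full growth arrest is given as TGI.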 Where only a bound is given, the exact number is not on record here.

Among the test systems are HOP-92 NSCLC; K-562 leukemia; MOLT-4 leukemia; NCI-H226 lung; SF-539 CNS; SK-MEL-28 melanoma; SN12C renal; SNB-75 CNS; UACC-257 melanoma; HS 578T breast.
What all share (assay): NCI anticancer screen, dose series, 48 h

With `CC(=O)[O][Pb]([O]C(C)=O)([c]1ccccc1)[c]1ccccc1`, the GI50 was 3.62 µM with HOP-92 NSCLC; over 25.9 µM in the assay on K-562 leukemia; 35 µM in the assay with MOLT-4 leukemia; 64.2 µM with NCI-H226 lung; 13.3 µM with SF-539 CNS; 6.72 µM in the assay with SK-MEL-28 melanoma. Moreover, the GI50 with SN12C renal was 3.61 µM; in the assay with SNB-75 CNS it was 4.41 µM; in the assay on UACC-257 melanoma, 6.88 µM. The TGI in the assay on HOP-92 NSCLC, in the assay on K-562 leukemia, with MOLT-4 leukemia, in the assay on NCI-H226 lung, in the assay on SF-539 CNS and in the assay with SK-MEL-28 melanoma was over 100 µM in each case. Besides, the TGI in the assay with SN12C renal is over 100 µM; in the assay with SNB-75 CNS it was over 77.7 µM; in the assay with UACC-257 melanoma, over 100 µM.

With `CN(C)c1ccc2c(NCCCCCCNc3ccnc4cc(N(C)C)ccc34)ccnc2c1`, the TGI in the assay on K-562 leukemia was over 100 µM; in the assay with MOLT-4 leukemia, over 100 µM; in the assay on SF-539 CNS it was 45.2 µM; with SK-MEL-28 melanoma, 50.8 µM; with SN12C renal it was over 100 µM; in the assay with UACC-257 melanoma, 49.9 µM.

On to `CC1=CC(=O)c2c(O)cccc2C1=O`, for which the TGI with HOP-92 NSCLC is 1.43 µM; with K-562 leukemia, 2.52 µM; in the assay with MOLT-4 leukemia, 0.762 µM; with NCI-H226 lung it was 24.6 µM; with SF-539 CNS it was 3.92 µM; with SK-MEL-28 melanoma it was 3.28 µM. Further, the results for the TGI in the assay with SN12C renal, with SNB-75 CNS and in the assay with UACC-257 melanoma were 3.39 µM, 16.9 µM and 3.27 µM, respectively.

Regarding `COc1cc2cc(Oc3ccc(NC(=O)Nc4ccc(Cl)c(C(F)(F)F)c4)cc3)c(C)nc2cc1OCCN1CCCCC1`, the GI50 was 1.09 µM in the assay with HOP-92 NSCLC; 0.547 µM in the assay with K-562 leukemia; 1.1 µM with MOLT-4 leukemia; 1.58 µM with SF-539 CNS; 1.79 µM in the assay with SK-MEL-28 melanoma; 1.67 µM with SN12C renal. Also, the GI50 in the assay with SNB-75 CNS is 1.13 µM; in the assay with UACC-257 melanoma, 1.79 µM. For the same compound, the TGI in the assay on HOP-92 NSCLC is 2.41 µM; in the assay on K-562 leukemia, 2.33 µM; with MOLT-4 leukemia it was 2.71 µM; with SF-539 CNS, 2.94 µM; with SK-MEL-28 melanoma, 3.23 µM; in the assay on SN12C renal, 3.26 µM. In addition, the values for the TGI with SNB-75 CNS and in the assay with UACC-257 melanoma were 2.33 µM and 3.46 µM, respectively.

Turning to `N#CC(C#N)=Cc1ccc(-c2ccc(-c3nc4ccccc4s3)cc2)o1`, the GI50 in the assay with K-562 leukemia was 27.4 µM; in the assay with MOLT-4 leukemia, 14 µM; in the assay on NCI-H226 lung, 14.2 µM; in the assay with SF-539 CNS, 11.2 µM; in the assay on SK-MEL-28 melanoma, 27.5 µM; in the assay on SN12C renal it was 1.09 µM. In addition, the GI50 with SNB-75 CNS is 25.3 µM; in the assay with UACC-257 melanoma, 92.9 µM. The TGI is over 100 µM in the assay on K-562 leukemia; over 100 µM in the assay with MOLT-4 leukemia; 39.2 µM in the assay with NCI-H226 lung; 26.7 µM with SF-539 CNS; over 100 µM with SK-MEL-28 melanoma; 12.6 µM in the assay with SN12C renal. In addition, the TGI is 60 µM in the assay on SNB-75 CNS and over 100 µM in the assay with UACC-257 melanoma.

With `C=C1C(=O)O[C@H]2C[C@@H](C)[C@@H]3CC(=O)OC[C@@]3(C)CC12` (stereo partly specified), the TGI with HOP-92 NSCLC came out at 34.8 µM; in the assay on K-562 leukemia it was 68.5 µM; in the assay with MOLT-4 leukemia, 57.3 µM; with SF-539 CNS, 48 µM; in the assay on SK-MEL-28 melanoma, 47.8 µM; in the assay with SN12C renal, 60.8 µM. The TGI in the assay on SNB-75 CNS is over 100 µM.

For `CC(=O)/C(=C\c1ccco1)C(=O)Nc1ccccc1`, the TGI in the assay on HOP-92 NSCLC, in the assay on K-562 leukemia, with MOLT-4 leukemia, with SF-539 CNS, in the assay with SK-MEL-28 melanoma and with SN12C renal was over 100 µM each time. Further, in the assay on UACC-257 melanoma, the TGI was over 100 µM.

In the case of `COc1ccc(Cn2nc(-c3cc(OC)c(OC)c(OC)c3)c3c2CCc2cnoc2-3)cc1OC`, the GI50 is 2.22 µM with HS 578T breast; 3.76 µM in the assay with MOLT-4 leukemia; 6.85 µM in the assay on NCI-H226 lung; 3.11 µM in the assay on SF-539 CNS; 10.3 µM with SK-MEL-28 melanoma; 5.25 µM with SN12C renal. For the same compound, the GI50 was 1.39 µM in the assay on SNB-75 CNS and 34.6 µM with UACC-257 melanoma. Besides, the TGI in the assay on HS 578T breast is 15.2 µM; in the assay on MOLT-4 leukemia it was over 100 µM; in the assay with NCI-H226 lung it was 56.1 µM; in the assay on SF-539 CNS, 36.1 µM; in the assay with SK-MEL-28 melanoma, over 100 µM; with SN12C renal, over 100 µM. For the same compound, the TGI with SNB-75 CNS was 5.64 µM; in the assay on UACC-257 melanoma, over 100 µM.

As for `COC12C=CC(CC1)c1c(O)ccc(O)c12` (stereo unspecified), the TGI is 61.8 µM in the assay on K-562 leukemia; over 79 µM with MOLT-4 leukemia; over 100 µM in the assay with NCI-H226 lung; over 100 µM in the assay with SF-539 CNS; over 100 µM in the assay with SK-MEL-28 melanoma; over 100 µM with SN12C renal. Further, the TGI in the assay on SNB-75 CNS and in the assay on UACC-257 melanoma was over 100 µM in each case.

Consider `CC1CC2C(=O)NC(=O)C2c2[nH]c3ccccc3c21` (stereo unspecified), for which the TGI in the assay with HOP-92 NSCLC, in the assay with K-562 leukemia, in the assay on MOLT-4 leukemia, with NCI-H226 lung, in the assay with SF-539 CNS and in the assay on SN12C renal was over 100 µM in each case. In addition, the TGI in the assay with SNB-75 CNS is over 100 µM.

Regarding `O=C1C/C(=C/c2ccc(/C=C3/CC(=O)N(c4cccc(Br)c4)C3=O)cc2)C(=O)N1c1cccc(Br)c1`, the TGI in the assay on HOP-92 NSCLC was over 100 µM; with K-562 leukemia, over 100 µM; in the assay with MOLT-4 leukemia, 98.6 µM; in the assay with NCI-H226 lung, over 100 µM; in the assay on SF-539 CNS it was over 100 µM; with SK-MEL-28 melanoma, over 100 µM. In addition, the TGI with SN12C renal was over 100 µM; in the assay with SNB-75 CNS, 53.1 µM; in the assay with UACC-257 melanoma, over 100 µM.

Turning to `COC(=O)[C@@H]1CSC(=S)N1C(=O)C[C@H]1CC=CC[C@H]1CC(=O)Sc1ccccc1`, the TGI with K-562 leukemia was determined as 38.9 µM; with MOLT-4 leukemia, 16.7 µM; in the assay on NCI-H226 lung it was 47.2 µM; with SF-539 CNS, 32.1 µM; in the assay with SK-MEL-28 melanoma it was 32.1 µM; in the assay with SN12C renal, 30.4 µM. The TGI with SNB-75 CNS was determined as 29 µM; in the assay on UACC-257 melanoma, 35.9 µM.

Regarding `O=C(CCn1[nH]c(=O)c(Cl)c(Cl)c1=O)NOCCCc1ccccc1`, the TGI in the assay on HOP-92 NSCLC, in the assay on K-562 leukemia, in the assay with MOLT-4 leukemia, with NCI-H226 lung, with SF-539 CNS and with SK-MEL-28 melanoma was over 100 µM each time. Moreover, the TGI with SN12C renal, in the assay on SNB-75 CNS and with UACC-257 melanoma was over 100 µM throughout.

(Values after PubChem BioAssay (NCI).)
